This note sets out measurements from ChEMBL document CHEMBL1129108, “On the bioactive conformation of the gaba uptake inhibitor SK&F 89976-A” (Bioorg Med Chem Lett, 1996).

Holding throughout (type): functional
Test [1] has as its target T1, Sodium- and chloride-dependent betaine transporter (Homo sapiens, UniProt P48065).
T1 sequence (P48065 whole entry): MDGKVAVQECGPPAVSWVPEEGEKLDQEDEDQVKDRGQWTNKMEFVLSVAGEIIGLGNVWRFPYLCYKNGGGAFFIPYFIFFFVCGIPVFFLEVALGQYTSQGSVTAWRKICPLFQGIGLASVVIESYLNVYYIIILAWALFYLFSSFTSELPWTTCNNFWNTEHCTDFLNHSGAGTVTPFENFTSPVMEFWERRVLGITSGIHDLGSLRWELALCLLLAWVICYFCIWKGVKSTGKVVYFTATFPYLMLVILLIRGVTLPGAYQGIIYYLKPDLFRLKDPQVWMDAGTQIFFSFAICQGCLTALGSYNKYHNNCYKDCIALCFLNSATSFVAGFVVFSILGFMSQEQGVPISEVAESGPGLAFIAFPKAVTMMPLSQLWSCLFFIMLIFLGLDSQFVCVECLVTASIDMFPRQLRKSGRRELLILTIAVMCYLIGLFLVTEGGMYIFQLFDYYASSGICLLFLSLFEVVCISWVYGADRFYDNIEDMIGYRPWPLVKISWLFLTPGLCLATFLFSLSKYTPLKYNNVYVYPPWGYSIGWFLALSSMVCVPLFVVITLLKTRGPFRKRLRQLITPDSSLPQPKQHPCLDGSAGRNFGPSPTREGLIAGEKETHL
As to the kind of experiment: Compound was tested for its ability to inhibit uptake of [3H]- GABA by cloned human BGT-1 transporter.

The target of test [2] is Sodium- and chloride-dependent GABA transporter 1 (Homo sapiens, UniProt P30531). As to the kind of experiment: Compound was tested for its ability to inhibit uptake of [3H]- GABA by cloned human GAT-1 transporter.
Sodium- and chloride-dependent GABA transporter 1, sequence (P30531 whole entry): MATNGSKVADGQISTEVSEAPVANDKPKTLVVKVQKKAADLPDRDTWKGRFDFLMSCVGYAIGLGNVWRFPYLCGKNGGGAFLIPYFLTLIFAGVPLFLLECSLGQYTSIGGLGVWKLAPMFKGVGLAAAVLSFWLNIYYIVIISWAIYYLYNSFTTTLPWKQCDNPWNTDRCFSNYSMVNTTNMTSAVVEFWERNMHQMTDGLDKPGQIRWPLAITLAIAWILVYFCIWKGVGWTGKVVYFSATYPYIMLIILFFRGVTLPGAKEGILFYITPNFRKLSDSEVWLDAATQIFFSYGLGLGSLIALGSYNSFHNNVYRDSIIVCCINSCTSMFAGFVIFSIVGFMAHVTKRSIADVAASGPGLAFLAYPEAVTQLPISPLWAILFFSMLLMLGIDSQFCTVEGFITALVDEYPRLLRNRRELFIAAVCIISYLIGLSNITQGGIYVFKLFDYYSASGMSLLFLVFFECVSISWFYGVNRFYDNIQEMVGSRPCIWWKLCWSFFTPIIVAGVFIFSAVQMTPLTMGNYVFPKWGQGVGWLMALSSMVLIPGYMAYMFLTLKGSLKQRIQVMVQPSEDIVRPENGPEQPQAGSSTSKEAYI
The target of test [3] is T2, Sodium- and chloride-dependent GABA transporter 2 (Rattus norvegicus, UniProt P31646).
T2 sequence (P31646 whole entry): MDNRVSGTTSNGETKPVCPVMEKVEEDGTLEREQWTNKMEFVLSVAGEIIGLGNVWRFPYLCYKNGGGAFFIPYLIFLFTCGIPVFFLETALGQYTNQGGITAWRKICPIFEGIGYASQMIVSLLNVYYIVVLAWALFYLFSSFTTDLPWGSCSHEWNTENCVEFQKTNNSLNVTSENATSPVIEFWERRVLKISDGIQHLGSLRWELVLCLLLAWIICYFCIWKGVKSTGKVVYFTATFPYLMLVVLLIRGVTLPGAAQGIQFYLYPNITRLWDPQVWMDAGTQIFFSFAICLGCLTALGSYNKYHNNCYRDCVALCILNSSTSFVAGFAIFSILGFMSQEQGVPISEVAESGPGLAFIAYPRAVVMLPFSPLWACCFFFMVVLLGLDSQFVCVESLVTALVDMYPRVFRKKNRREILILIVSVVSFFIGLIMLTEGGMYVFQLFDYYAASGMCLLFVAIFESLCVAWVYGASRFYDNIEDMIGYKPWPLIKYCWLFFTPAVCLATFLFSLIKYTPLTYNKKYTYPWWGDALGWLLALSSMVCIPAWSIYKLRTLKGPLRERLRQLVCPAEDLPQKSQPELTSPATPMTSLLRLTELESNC
Nature of the test: Compound was tested for its ability to inhibit uptake of [3H]- GABA by cloned rat GAT-2 transporte.

Test [4] deals with T3, Sodium- and chloride-dependent GABA transporter 3 (Homo sapiens, UniProt P48066).
T3 sequence (P48066 whole entry): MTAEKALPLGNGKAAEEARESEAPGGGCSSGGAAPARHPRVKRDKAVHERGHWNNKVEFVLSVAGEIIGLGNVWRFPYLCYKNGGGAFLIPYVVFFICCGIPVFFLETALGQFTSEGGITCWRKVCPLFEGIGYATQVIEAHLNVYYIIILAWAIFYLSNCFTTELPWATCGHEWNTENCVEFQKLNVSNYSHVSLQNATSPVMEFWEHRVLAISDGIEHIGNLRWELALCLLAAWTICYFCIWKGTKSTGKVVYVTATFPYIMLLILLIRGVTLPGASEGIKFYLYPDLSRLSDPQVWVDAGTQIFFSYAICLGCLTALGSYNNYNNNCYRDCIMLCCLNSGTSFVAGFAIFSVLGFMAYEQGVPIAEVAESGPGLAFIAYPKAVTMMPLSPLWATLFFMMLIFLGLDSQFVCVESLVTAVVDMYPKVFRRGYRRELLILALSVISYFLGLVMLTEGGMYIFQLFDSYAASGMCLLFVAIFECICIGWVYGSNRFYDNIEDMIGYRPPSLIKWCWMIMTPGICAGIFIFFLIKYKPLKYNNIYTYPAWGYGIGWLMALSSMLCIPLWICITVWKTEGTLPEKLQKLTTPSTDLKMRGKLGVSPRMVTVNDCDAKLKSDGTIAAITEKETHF
Nature of the test: Compound was tested for its ability to inhibit uptake of [3H]- GABA by cloned human GAT-3 transporter.

The structures appear in SMILES notation.

One may read the IC50 as the concentration needed to halve the response being measured. As to `O=C(O)[C@H]1CCC2CC(=C(c3ccccc3)c3ccccc3)CCN2C1` (stereo partly specified), the IC50 in test [1] is 335 µM; in test [2], 809 µM; in test [3] it was 757 µM; in test [4] it was 876 µM.
`O=C(O)[C@@H]1CCC2C[C@H](C(c3ccccc3)c3ccccc3)CCN2C1` (stereo partly specified): the IC50 in test [1] stood at 2900 µM; in test [2] it was 632 µM; in test [3], 477 µM; in test [4], 2040 µM.
In the same order, the values of `O=C(O)[C@H]1CCC2C[C@H](C(c3ccccc3)c3ccccc3)CCN2C1` (stereo partly specified) are 809 µM, 270 µM, 669 µM and 782 µM.
As to `O=C(O)[C@@H]1CCC2CC(=C(c3ccccc3)c3ccccc3)CCN2C1` (stereo partly specified), the IC50 in test [1] turned out to be 436 µM; in test [2], 270 µM; in test [3], 810 µM; in test [4], 3230 µM.
